According to US20080141384A1, “Composition For Screening Anti-Hypertension Drug Comprising Mammal Tctp Gene or Its Protein Product, and Method For Screening Anti-Hypertension Drug Using Said Composition” (EWHA UNIVERSITY INDUSTRY COLLABORATION FOUNDATION, priority 2003, published 2008):

Assays:
Na/K APTase pump [1] = assay: Na/K APTase pump activity by 86Rb+ uptake in RBL-2H3 cells; format: cell-based; conditions: 10-20 μg/ml TCTP added, 86Rb+ tracer, versus control without TCTP, FIG. 1a
Method: The Na/K APTase pump inhibitory activity of the TCTP protein contained in the inventive composition was examined. As it was already known that TCTP interacts with the Na/K APTase pump, a test was performed to examine if the interaction has any effect on the activity of the Na/K APTase pump inhibitory activity.
RBL-2H3 cells were cultured at a suitable density and washed three times with Krebs-Ringer buffer (KRP, 140 mM NaCl, 5 mM KCl, 10 mM Na2HPO4, 1 mM MgSO4, 1.4 mM CaCl2, 2.5 mM glucose, pH 7.4). Subsequently, the cells were incubated at 37° C. for 15 minutes, and added with 0.1% BSA-containing KRP buffer containing 1 mM ouabain.
To measure the transport of K^+ ions caused by the Na/K APTase pump, cultivation was performed for 5-10 minutes using an ^86Rb^+([…], NEN) tracer having high sensitivity to ouabain, and 10-20 μg/ml TCTP was added. Also, a control group to which TCTP had not been added was prepared.

Na/K APTase pump [2] = assay: FACS analysis of intracellular Na+ using a Na-sensitive dye; format: cell-based; conditions: FACS with Na-sensitive dye, versus control group (Mock); FIG. 1b
Method: To confirm the above results again, FACS analysis was performed using a Na-sensitive dye.

Na/K-ATPase pump = assay: cell-based or functional assay

With “TCTP: Translationally controlled tumor protein (IgE-dependent histamine-releasing factor), amino acid sequence of SEQ ID NO: 2; cytoplasmic inhibitor of the Na/K-ATPase pump” as the substance, how does the “activity of the Na/K APTase pump (reduced to)” value (Na/K APTase pump [1]) read?
Its value is 53.5%.

And the “intracellular Na+ concentration” value (Na/K APTase pump [2])?
Its value is “increased the intracellular Na^+ concentration”.

“Translationally controlled tumor protein (TCTP) (from UniProt P13693 1-172)” was tested. Which activity of the Na/K APTase pump (ouabain-sensitive 86Rb+ uptake in RBL-2H3 cells, 10-20 ug/ml TCTP against a control without TCTP) (Na/K-ATPase pump) did it give?
The activity of the Na/K APTase pump (ouabain-sensitive 86Rb+ uptake in RBL-2H3 cells, 10-20 ug/ml TCTP against a control without TCTP) was 53.5%.
